Reference: PMC11672299, “Conjugation of Polycationic Peptides Extends the Efficacy Spectrum of β‐Lactam Antibiotics” (Advanced Science, 2024)

Experiments:
[1] = test system: K. pneumoniae BL809453 (KPC); assay: microbe, parasite or virus in culture; type: cell-based; settings: Klebsiella pneumoniae, 20 h, combinations: avibactam fixed 4 mg L^−1, clavulanic acid 2 mg L^−1, median (n = 3)
Procedure, shortened: (§1)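 Susceptibility is determined by broth microdilution, with inocula of 5 × 10^5 CFU mL^−1 in cation-adjusted MHB II and 20 h incubation at 37 ± 1 °C. For inhibitor combinations, clavulanic acid (2 mg L^−1) or avibactam (4 mg L^−1) is held constant following EUCAST guidance.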

[2] = test system: K. pneumoniae 0 6841/Nr.45 (Oxa48); assay: microbe, parasite or virus in culture; type: cell-based; settings: Klebsiella pneumoniae, 20 h; K. pneumoniae 06841/Nr.45 (Oxa48); combinations: avibactam fixed 4 mg L^−1, clavulanic acid 2 mg L^−1; median (n = 3)
Procedure, shortened: as §1

[3] = test system: A. baumannii SC300007 (Oxa23); assay: microbe, parasite or virus in culture; type: cell-based; settings: Acinetobacter baumannii, 20 h, combinations: avibactam fixed 4 mg L^−1, clavulanic acid 2 mg L^−1, median (n = 3)
Procedure, shortened: as §1

[4] = test system: A. pittii Tü21‐041 (clinical isolate); assay: microbe, parasite or virus in culture; type: cell-based; settings: Acinetobacter pittii; A. pittii Tü21‐041; median (n = 3); read-out: MIC
Procedure, shortened: as §1

[5] = test system: C. freundii Tü21‐052 (clinical isolate); assay: microbe, parasite or virus in culture; type: cell-based; settings: Citrobacter freundii; C. freundii Tü21‐052; median (n = 3); read-out: MIC
Procedure, shortened: as §1

[6] = test system: K. pneumoniae ATCC 700 603 (SHV‐18); assay: microbe, parasite or virus in culture; type: cell-based; settings: Klebsiella pneumoniae, 20 h; K. pneumoniae ATCC 700603 (SHV‐18); combinations: avibactam fixed 4 mg L^−1, clavulanic acid 2 mg L^−1; median (n = 3)
Procedure, shortened: as §1

[7] = test system: E. coli Tü21‐031 (Oxa244, ESBL); assay: microbe, parasite or virus in culture; type: cell-based; settings: Escherichia coli, combinations: avibactam fixed 4 mg L^−1, median (n = 3)
Procedure, shortened: as §1

E. coli ATCC 25 922 (–) = assay: microbe, parasite or virus in culture; type: cell-based; settings: Escherichia coli, 20 h; E. coli ATCC 25922 (no β‐lactamase); combinations: avibactam fixed 4 mg L^−1, clavulanic acid 2 mg L^−1; median (n = 3)
Procedure, shortened: as §1

[8] = test system: Enterobacteriaceae (CTZ‐resistant); assay: MIC compared with parent β‐lactam; type: cell-based
Description: (§2) The minimum inhibitory concentration (MIC) of the β‐lactam–peptide conjugates was determined by broth microdilution as previously described.^[ [17] ^] Briefly, in cation‐adjusted MHB II medium, a twofold serial dilution of the compounds was prepared in 96‐well round‐bottom polystyrene or polypropylene microtiter plates with each well containing 50 µL. The plates were inoculated with 50 µL bacterial suspension and the final inoculum, in a total volume of 100 µL, contained 5 × 10^5 CFU mL^−1. The microplates were incubated for 20 h at 37 ± 1 °C. The lowest concentration preventing visible bacterial growth was considered the MIC value. For susceptibility testing of combinations of β‐lactamase‐inhibitors with either a β‐lactam antibiotic or a β‐lactam–peptide conjugate, fixed concentrations of the inhibitors according to the EUCAST (European Committee on Antimicrobial Susceptibility Testing) guidelines (clavulanic acid = 2 mg L^−1, avibactam = 4 mg L^−1) were used.

Gram‐positive bacteria = assay: MIC compared with parent β‐lactam; type: cell-based
Description: as §2

E. faecalis (vanB) = assay: MIC compared with parent β‐lactam; type: cell-based; settings: on a molar level
Description: as §2

Gram‐negative bacteria = assay: MIC compared with parent β‐lactam; type: cell-based
Description: as §2

[9] = test system: VRE E. faecium UW 18 830 (vanA); assay: Systemic infection VRE mouse model; type: in vivo, female Balb/c mice; settings: VRE E. faecium UW18830 infected Balb/c mice, 30 mg kg^−1 day^−1 i.v., 48 h p.i., compared to CTZ or PBS
Source text: The animal infection studies were approved by the local government of Lower Franconia, Germany (approval number 55.2.2‐2532.2‐1283) and performed in strict accordance with the guidelines for animal care and experimentation of the German Animal Protection Law and the DIRECTIVE 2010/63/EU of the EU. The animals were housed in individually ventilated cages under standardized lighting conditions and had ad libitum access to food and water. To evaluate the in vivo activity during systemic infection, female Balb/c mice were infected with 5×10^7 CFU of VRE E. faecium UW 18 830 (vanA) by tail vein injection. Beginning at 1 h p.i., then repeatedly every 12 h, mice received intravenously either CTZ (30 mg kg body weight^−1 day^−1), CTZ‐R6 (30 mg kg body weight^−1 day^−1) or sterile PBS. The livers were recovered 48 h p.i. (12 h after the last treatment) and frozen at – 80 °C until further processing. For the determination of the bacterial burden, the livers were thawed, homogenized in PBS and plated in serial dilutions on brain heart infusion agar plates. CFU were counted after overnight incubation at 37 °C.

[10] = Scintigraphy and biodistribution in rats; set-up: species or system Wistar rats; settings: rat, in vivo, iv
Description: To enable radiolabeling of the β‐lactam–peptide conjugates, their peptide sequence was elongated by an N‐terminal D‐tyrosine. […] The solution was mixed with 5 MBq of iodine‐125 and radiolabeling was performed using the chloramine T method as previously described.^[ [35] ^] After 30 s, the reaction was quenched by the addition of a saturated methionine solution and the radiolabeled compound purified by reversed‐phase preparative radio‐HPLC (1100 series, Agilent Technologies, Santa Clara, CA, USA). Analysis was performed by analytical radio‐HPLC (1100 series, Agilent Technologies, Santa Clara, CA, USA) using a linear gradient from water (+ 0.1% TFA) to acetonitrile (+ 0.1% TFA) over 5 min at a flow rate of 2 mL min^−1.
All animal studies were approved by the Animal Care and Use committees from Regierungspräsidium Karlsruhe (Karlsruhe, Germany; reference number 35–9185.81/G‐199/21; date of approval: November 23, 2021). […]
The biodistribution of CTZ‐yR6 in Wistar rats was determined at 10 min and 3 h post injection. […] Using a Cobra γ‐counter (Packard Bioscience, Meriden, CT, USA), the amount of radioactivity in each sample was measured which was then used in combination with the organ weight and injected dose for the calculation of the […] per gram of tissue (%ID g^−1).

CC(C)(O/N=C(\C(=O)N[C@@H]1C(=O)N2C(C(=O)[O-])=C(C[n+]3ccccc3)CS[C@H]12)c1csc(N)n1)C(=O)O [CTZ, ceftazidime, reference compound]
MIC [1]: > 64 µg/mL | MIC [2]: > 64 µg/mL | MIC [3]: > 64 µg/mL | MIC [4]: 4 µg/mL | MIC [5]: 0.25 µg/mL | MIC [6]: 64 µg/mL | MIC [7]: 32 µg/mL | MIC (E. coli ATCC 25 922 (–)): 0.25 µg/mL

CC(C)(O/N=C(\C(=O)N[C@@H]1C(=O)N2C(C(=O)[O-])=C(C[n+]3ccccc3)CS[C@H]12)c1csc(N)n1)C(=O)NCCCCCCN1C(=O)CC(SC[C@H](NC(=O)[C@H](CCCNC(=N)N)NC(=O)[C@H](CCCNC(=N)N)NC(=O)[C@H](CCCNC(=N)N)NC(=O)[C@H](CCCNC(=N)N)NC(=O)[C@H](CCCNC(=N)N)NC(=O)[C@@H](N)CCCNC(=N)N)C(N)=O)C1=O (some centres unmarked) [CTZ-R6]
increase in antimicrobial activity versus CTZ [8]: ca. fourfold | increase in antimicrobial activity versus CTZ (factor) (Gram‐positive bacteria): ≈ 1000 | increase in antimicrobial activity versus CTZ (E. faecalis (vanB)): ~300 fold | increase in antimicrobial activity versus CTZ (factor) (Gram‐negative bacteria): 2–32 | bacterial burden in the liver (CFU) [9]: reduced the bacterial burden in the liver | biodistribution (organ accumulation) [10]: accumulated in the liver and in the kidneys
